For assay [1], the target named is soluble human BACE1 catalytic domain (Homo sapiens (Human), UniProt P56817). The experiment in a line: BACE1 HTRF FRET Assay. It counts as biochemical. The following applies: Ki calculated from IC50 using the Cheng-Prusoff equation; QSY7-APPswe-Eu substrate, pH 5.0. The source says: Reagents: Na^+-Acetate pH 5.0; 1% Brij-35; Glycerol; Dimethyl Sulfoxide (DMSO); Recombinant human soluble BACE1 catalytic domain (>95% pure); APP Swedish mutant peptide substrate (QSY7-APP^swe-Eu): QSY7-[…]-Europium-amide (SEQ ID 1).
Sequence of soluble human BACE1 catalytic domain (P56817 75-416): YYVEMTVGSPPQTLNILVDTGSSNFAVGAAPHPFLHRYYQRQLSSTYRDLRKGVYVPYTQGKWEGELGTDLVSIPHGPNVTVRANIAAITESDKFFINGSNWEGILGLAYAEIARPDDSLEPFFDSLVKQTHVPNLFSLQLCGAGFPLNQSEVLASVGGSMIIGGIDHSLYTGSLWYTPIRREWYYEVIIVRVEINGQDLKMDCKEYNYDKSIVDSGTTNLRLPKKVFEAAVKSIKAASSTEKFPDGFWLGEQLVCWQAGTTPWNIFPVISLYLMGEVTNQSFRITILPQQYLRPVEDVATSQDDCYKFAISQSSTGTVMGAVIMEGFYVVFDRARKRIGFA
A homogeneous time-resolved FRET assay can be used to determine IC50 values for inhibitors of the soluble human BACE1 catalytic domain. This assay monitors the increase of 620 nm fluorescence that resulted from BACE1 cleavage of an APPswedish APP^swe mutant peptide FRET substrate (QSY7-[…]-Europium-amide (SEQ ID 1)). This substrate contains an N-terminal QSY7 moiety that serves as a quencher of the C-terminal Europium fluorophore (620 nm Em). […] Inhibition of BACE1 cleavage of the QSY7-APP^swe-Eu substrate by inhibitors is manifested as a suppression of 620 nm fluorescence.
Varying concentrations of inhibitors at 3× the final desired concentration in a volume of 10 ul are preincubated with purified human BACE1 catalytic domain (3 nM in 10 μl) for 30 minutes at 30° C. in reaction buffer containing 20 mM Na-Acetate pH 5.0, 10% glycerol, 0.1% Brij-35 and 7.5% DSMO. Reactions are initiated by addition of 10 μl of 600 nM QSY7-APP^swe-Eu substrate (200 nM final) to give a final reaction volume of 30 μl in a 384 well Nunc HTRF plate. The reactions are incubated at 30° C. for 1.5 hours. The 620 nm fluorescence is then read on a Rubystar HTRF plate reader (BMG Labtechnologies) using a 50 millisecond delay followed by a 400 millisecond acquisition time window. Inhibitor IC50 values are derived from non-linear regression analysis of concentration response curves.

The target of assay [2] is purified human autoBACE-2 (Homo sapiens, UniProt Q9Y5Z0). The experiment in a line: BACE-2 Assay (BACE-HTRF assay). It counts as biochemical. To be noted: Ki calculated from IC50 using the Cheng-Prusoff equation; QSY7-EISEVNLDAEFC-Eu-amide substrate, pH 5.0; read-out: BACE2 Ki. The procedure:
DMSO is present at 5% final concentration in the assay. Following laser excitation of sample wells at 320 nm, the fluorescence signal at 620 nm is collected for 400 ms following a 50 μs delay on a RUBYstar HTRF plate reader (BMG Labtechnologies). Raw RFU data is normalized to maximum (1.0 nM BACE/DMSO) and minimum (no enzyme/DMSO) RFU values. […] The Ki values are calculated from the IC50 using the Cheng-Prusoff equation.

What is called Ki is a dissociation constant, usually derived from enzyme kinetics or from competition with a known ligand.

The structures appear in SMILES notation. A value given as a limit tells only on which side of the number the result lay.

Sequence of purified human autoBACE-2 (Q9Y5Z0 63-518 limits assumed): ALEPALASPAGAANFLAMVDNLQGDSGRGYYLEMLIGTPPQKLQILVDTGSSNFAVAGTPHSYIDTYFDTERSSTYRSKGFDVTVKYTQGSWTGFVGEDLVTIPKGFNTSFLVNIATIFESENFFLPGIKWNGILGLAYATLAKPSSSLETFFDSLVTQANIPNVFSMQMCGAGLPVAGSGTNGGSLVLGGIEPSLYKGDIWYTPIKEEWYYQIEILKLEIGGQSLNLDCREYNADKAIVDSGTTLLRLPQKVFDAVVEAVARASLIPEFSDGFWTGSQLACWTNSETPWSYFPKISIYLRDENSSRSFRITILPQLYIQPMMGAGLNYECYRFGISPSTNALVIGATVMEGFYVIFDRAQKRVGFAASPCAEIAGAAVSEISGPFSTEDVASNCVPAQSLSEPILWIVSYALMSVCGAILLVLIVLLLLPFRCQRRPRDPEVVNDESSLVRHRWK

Turning to `COc1cnc(C(=O)Nc2ccc(F)c([C@]3(C)CN(C)S(=O)(=O)C(C)(C)C(=N)N3)c2)cn1` [Example 1, N-{4-fluoro-3-[(4R)-6-imino-2,4,7,7-tetramethyl-1,1-dioxido-1,2,5-thiadiazepan-4-yl]phenyl}-5-methoxypyrazine-2-carboxamide], the figures for the Ki in assay [1] and in assay [2] were 37 nM and 102 nM, respectively.
With `CN1C[C@@](C)(c2cc(NC(=O)c3ccn(C(F)F)n3)ccc2F)NC(=N)C(C)(C)S1(=O)=O` [Example 2, 1-(difluoromethyl)-N-{4-fluoro-3-[(4R)-6-imino-2,4,7,7-tetramethyl-1,1-dioxido-1,2,5-thiadiazepan-4-yl]phenyl}-1H-pyrazole-3-carboxamide], the Ki was 46 nM in assay [1] and 6 nM in assay [2].
In the case of `CN1C[C@@](C)(c2cc(NC(=O)c3ccc(F)cn3)ccc2F)NC(=N)C(C)(C)S1(=O)=O` [Example 3, 5-fluoro-N-{4-fluoro-3-[(4R)-6-imino-2,4,7,7-tetramethyl-1,1-dioxido-1,2,5-thiadiazepan-4-yl]phenyl}pyridine-2-carboxamide], the values for the Ki in assay [1] and in assay [2] were 54 nM and 13 nM, respectively.
Take `CN1C[C@@](C)(c2cc(NC(=O)c3ccc(OC(F)F)cn3)ccc2F)NC(=N)C(C)(C)S1(=O)=O` [Example 4, 5-(difluoromethoxy)-N-{4-fluoro-3-[(4R)-6-imino-2,4,7,7-tetramethyl-1,1-dioxido-1,2,5-thiadiazepan-4-yl]phenyl}pyridine-2-carboxamide]: the Ki in assay [1] was 32 nM; in assay [2], 144 nM.
For the compound `CN1C[C@@](C)(c2cc(NC(=O)c3ccc(C(F)(F)F)cn3)ccc2F)NC(=N)C(C)(C)S1(=O)=O` [Example 5, N-{4-fluoro-3-[(4R)-6-imino-2,4,7,7-tetramethyl-1,1-dioxido-1,2,5--thiadiazepan-4-yl]phenyl}-5-(trifluoromethyl)pyridine-2-carboxamide], the results for the Ki in assay [1] and in assay [2] were 59 nM and 115 nM, respectively.
On to `COc1ccc(C(=O)Nc2ccc(F)c([C@]3(C)CN(C)S(=O)(=O)C(C)(C)C(=N)N3)c2)nc1` [Example 6, N-{4-fluoro-3-[(4R)-6-imino-2,4,7,7-tetramethyl-1,1-dioxido-1,2,5-thiadiazepan-4-yl]phenyl}-5-methoxypyridine-2-carboxamide], for which the inhibitory constant (Ki) in assay [1] was 33 nM; in assay [2] it was 44 nM.
As to `CN1C[C@@](C)(c2cc(NC(=O)c3ccc(Cl)cn3)ccc2F)NC(=N)C(C)(C)S1(=O)=O` [Example 7, 5-chloro-N-{4-fluoro-3-[(4R)-6-imino-2,4,7,7-tetramethyl-1,1-dioxido-1,2,5-thiadiazepan-4-yl]phenyl}pyridine-2-carboxamide], the Ki in assay [2] is 8 nM.
In the case of `CN1C[C@@](C)(c2cc(NC(=O)c3ccc(C#N)cn3)ccc2F)NC(=N)C(C)(C)S1(=O)=O` [Example 8, 5-cyano-N-{4-fluoro-3-[(4R)-6-imino-2,4,7,7-tetramethyl-1,1-dioxido-1,2,5-thiadiazepan-4-yl]phenyl}pyridine-2-carboxamide], the Ki in assay [1] was 22 nM; in assay [2], 32 nM.
Turning to `COc1cnc(C(=O)Nc2ccc(F)c([C@]3(C)CN(C)S(=O)(=O)C(C)(C)C(=N)N3)c2)c(C)c1` [Example 9, N-{4-fluoro-3-[(4R)-6-imino-2,4,7,7-tetramethyl-1,1-dioxido-1,2,5-thiadiazepan-4-yl]phenyl}-5-methoxy-3-methylpyridine-2-carboxamide], the Ki in assay [1] is 68 nM; in assay [2], 32 nM.
Turning to `COc1cnc(C(=O)Nc2ccc(F)c([C@]3(C)CN(C)S(=O)(=O)C(C)(C)C(=N)N3)c2)c(C)n1` [Example 10, N-{4-fluoro-3-[(4R)-6-imino-2,4,7,7-tetramethyl-1,1-dioxido-1,2,5-thiadiazepan-4-yl]phenyl}-5-methoxy-3-methylpyrazine-2-carboxamide], the Ki in assay [1] is 62 nM; in assay [2], 59 nM.
As for `Cc1cc(C#N)cnc1C(=O)Nc1ccc(F)c([C@]2(C)CN(C)S(=O)(=O)C(C)(C)C(=N)N2)c1` [Example 11, 5-cyano-N-{4-fluoro-3-[(4R)-6-imino-2,4,7,7-tetramethyl-1,1-dioxido-1,2,5-thiadiazepan-4-yl]phenyl}-3-methylpyridine-2-carboxamide], the Ki in assay [1] was 24 nM; in assay [2], 28 nM.
For `CN1C[C@@](C)(c2cc(NC(=O)c3cnc(OCC(F)(F)F)cn3)ccc2F)NC(=N)C(C)(C)S1(=O)=O` [Example 12, N-{4-fluoro-3-[(4R)-6-imino-2,4,7,7-tetramethyl-1,1-dioxido-1,2,5-thiadiazepan-4-yl]phenyl}-5-(2,2,2-trifluoroethoxy)pyrazine-2-carboxamide] the same measures were 17 nM and 171 nM.
Consider `CN1C[C@@](C)(c2cc(NC(=O)c3cnccn3)ccc2F)NC(=N)C(C)(C)S1(=O)=O` [Example 13, N-{4-fluoro-3-[(4R)-6-imino-2,4,7,7-tetramethyl-1,1-dioxido-1,2,5-thiadiazepan-4-yl]phenyl}pyrazine-2-carboxamide], for which the Ki is 263 nM in assay [1] and 110 nM in assay [2].
The like results for `CN1C[C@@](C)(c2cc(NC(=O)c3cnc(OCCF)cn3)ccc2F)NC(=N)C(C)(C)S1(=O)=O` [Example 14, 5-(2-fluoroethoxy)-N-{4-fluoro-3-[(4R)-6-imino-2,4,7,7-tetramethyl-1,1-dioxido-1,2,5-thiadiazepan-4-y]phenyl}pyrazine-2-carboxamide] were, in that order, 52 nM and 217 nM.
As to `Cc1nc(C(=O)Nc2ccc(F)c([C@]3(C)CN(C)S(=O)(=O)C(C)(C)C(=N)N3)c2)no1` [Example 15, N-{4-fluoro-3-[(4R)-6-imino-2,4,7,7-tetramethyl-1,1-dioxido-1,2,5-thiadiazepan-4-yl]phenyl}-5-methyl-1,2,4-oxadiazole-3-carboxamide], the figures for the Ki in assay [1] and in assay [2] were 153 nM and 27 nM, respectively.
For `CN1C[C@@](C)(c2cc(NC(=O)c3cnsn3)ccc2F)NC(=N)C(C)(C)S1(=O)=O` [Example 16, N-{4-fluoro-3-[(4R)-6-imino-2,4,7,7-tetramethyl-1,1-dioxido-1,2,5-thiadiazepan-4-yl]phenyl}-1,2,5-thiadiazole-3-carboxamide] the same measures were 64 nM and 25 nM.
As for `CN1C[C@@](C)(c2cc(NC(=O)c3cn4ccc(C#N)cc4n3)ccc2F)NC(=N)C(C)(C)S1(=O)=O` [Example 17, 7-cyano-N-{4-fluoro-3-[(4R)-6-imino-2,4,7,7-tetramethyl-1,1-dioxido-1,2,5-thiadiazepan-4-yl]phenyl}imidazo[1,2-a]pyridine-2-carboxamide], the values for the Ki in assay [1] and in assay [2] were 5630 nM and 7490 nM, respectively.
With `CN1C[C@@](C)(c2cc(NC(=O)c3ccn(C)n3)ccc2F)NC(=N)C(C)(C)S1(=O)=O` [Example 18, N-{4-fluoro-3-[(4R)-6-imino-2,4,7,7-tetramethyl-1,1-dioxido-1,2,5-thiadiazepan-4-yl]phenyl}-1-methyl-1H-pyrazole-3-carboxamide], the figures for the Ki in assay [1] and in assay [2] were 271 nM and 42 nM, respectively.
`Cc1cc(C(=O)Nc2ccc(F)c([C@]3(C)CN(C)S(=O)(=O)C(C)(C)C(=N)N3)c2)no1` [Example 19, N-{4-fluoro-3-[(4R)-6-imino-2,4,7,7-tetramethyl-1,1-dioxido-1,2,5-thiadiazepan-4-yl]phenyl}-5-methylisoxazole-3-carboxamide]: the Ki in assay [1] was 1360 nM; in assay [2], 347 nM.
Turning to `Cc1nc2ccc(C(=O)Nc3ccc(F)c([C@]4(C)CN(C)S(=O)(=O)C(C)(C)C(=N)N4)c3)cc2o1` [Example 20, N-{4-fluoro-3-[(4R)-6-imino-2,4,7,7-tetramethyl-1,1-dioxido-1,2,5-thiadiazepan-4-yl]phenyl}-2-methyl-1,3-benzoxazole-6-carboxamide], the Ki is 1140 nM in assay [1] and > 9540 nM in assay [2].
For the compound `CN1C[C@@](C)(c2cc(NC(=O)c3ccccn3)ccc2F)NC(=N)C(C)(C)S1(=O)=O` [Example 21, N-{4-fluoro-3-[(4R)-6-imino-2,4,7,7-tetramethyl-1,1-dioxido-1,2,5-thiadiazepan-4-yl]phenyl}pyridine-2-carboxamide], the Ki is 228 nM in assay [1] and 43 nM in assay [2].
Regarding `Cc1cc(C(=O)Nc2ccc(F)c([C@]3(C)CN(C)S(=O)(=O)C(C)(C)C(=N)N3)c2)on1` [Example 22, N-{4-fluoro-3-[(4R)-6-imino-2,4,7,7-tetramethyl-1,1-dioxido-1,2,5-thiadiazepan-4-yl]phenyl}-3-methylisoxazole-5-carboxamide], the Ki was 1690 nM in assay [1] and 1020 nM in assay [2].

Values taken from patent US9745324B2, “Iminothiadiazepane dioxide compounds as BACE inhibitors, compositions, and their use” (Merck Sharp & Dohme Corp., priority 2013, dated 2017).
